Source: patent US8691775B2, “Use of drugs that activate P2Y receptors to enhance synaptogenesis” (Back Bay Scientific, LLC, priority 2010, dated 2014)

Columns and labels:
[1] = test system: PSD-95 protein in PC12 cells; test: Level of PSD-95 in PC12 cells incubated with test compound; type: cell-based; conditions: incubation 2 or 4 days
Source text: Postsynaptic protein PSD-95 is a member of the membrane-associated guanylate kinase (MAGUK) family. The protein is almost exclusively located in the postsynaptic density of neurons and is involved in anchoring synaptic proteins. The inventor hypothesized that active agents that increase the level of the PSD-95 protein in cultured cells may be screened for their ability to activate P2Y receptors in animal models.
PC12 cells, a cell line ultimately derived from neural cells, are maintained in Minimal Essential Medium (MEM; Invitrogen, Carlsbad, Calif.) supplemented with 10% fetal bovine serum (FBS) at 37° C. Experimental incubations are for 2 or 4 days in medium with or without test compounds.
The activity of each test compound is assessed by determining the effect of each test compound on the level of PSD-95 in the cells.

[2] = test system: brain dendritic spines; test: Brain dendritic spines in laboratory animals injected intraperitoneally with test compound; type: in vivo; conditions: intraperitoneal injection after 6 weeks of diet
Source text: The laboratory animals are fed a food composition with or without a synthetic diet enriched with uridine, DHA and choline for 6 weeks, and are then intraperitoneally injected with a composition comprising the test compound.

[3] = rats; cited from earlier work

| Compound | level of the PSD-95 protein in tissue culture [1] | level of brain dendritic spines in laboratory animals [2] | uridine entering the liver via the portal vein metabolized in a single pass [3] |
| --- | --- | --- | --- |
| CCCCCCSc1nc(N)c2ncn([C@@H]3O[C@H](COP(=O)(O)O)[C@@H](O)[C@H]3O)c2n1 [2-(hexylthio) (HT)-AMP] | effective | effective | – |
| CSc1nc(N)c2ncn([C@@H]3O[C@H](COP(=O)(O)OP(=O)(O)OP(=O)(O)O)[C@@H](O)[C@H]3O)c2n1 [2-MeSATP] | effective | effective | – |
| CSc1nc(N)c2ncn([C@@H]3O[C@H](COP(=O)([O-])OP(=O)([O-])[O-])[C@@H](O)[C@H]3O)c2n1.[Na+].[Na+].[Na+] [2-Methylthio-ADP trisodium salt] | effective | effective | – |
| O=c1ccn([C@@H]2O[C@H](COP(=O)([O-])OP(=O)([O-])OP(=O)([O-])[O-])[C@@H](O)[C@H]2O)c(=S)[nH]1.[Na+].[Na+].[Na+].[Na+] [2-ThioUTP tetrasodium salt] | effective | effective | – |
| O=c1ccn([C@@H]2O[C@H](COP(=O)(O)OP(=O)(O)OP(=O)(O)O)[C@@H](O)[C@H]2O)c(=S)[nH]1 [2-thio-UTP] | effective | effective | – |
| N[C@@H]1[C@H](O)[C@@H](COP(=O)(O)OP(=O)(O)OP(=O)(O)O)O[C@H]1n1ccc(=O)[nH]c1=O [2′-deoxy-2′-amino-UTP] | effective | effective | – |
| Nc1ncnc2c1ncn2[C@@H]1O[C@H](COP(=O)(O)OP(=O)(O)O)[C@@H](O)[C@H]1O [ADP] | effective | effective | – |
| Nc1ncnc2c1ncn2[C@@H]1O[C@H](COP(=O)(O)OP(=O)([O-])OP(=O)([O-])O)[C@@H](O)[C@H]1O.[Na+].[Na+] [ATP disodium salt] | effective | – | – |
| Nc1ncnc2c1ncn2[C@@H]1O[C@H](COP(=O)(O)OP(=O)(O)OP(=O)(O)OP(=O)(O)OC[C@H]2O[C@@H](n3cnc4c(N)ncnc43)[C@H](O)[C@@H]2O)[C@@H](O)[C@H]1O [Ap4A] | effective | effective | – |
| Nc1ncnc2c1ncn2[C@@H]1O[C@H](COP(=O)(O)OP(=O)(O)OP(=O)(O)OP(=O)(O)OC[C@H]2O[C@@H](n3ccc(=O)[nH]c3=O)[C@H](O)[C@@H]2O)[C@@H](O)[C@H]1O [Ap4U] | effective | effective | – |
| Nc1ccn([C@@H]2O[C@H](COP(=O)(O)OP(=O)(O)OP(=O)(O)O)[C@@H](O)[C@H]2O)c(=O)n1 [CTP, cytidine-triphosphate] | effective | effective | – |
| Nc1nc2c(ncn2[C@@H]2O[C@H](COP(=O)(O)OP(=O)(O)OP(=O)(O)O)[C@@H](O)[C@H]2O)c(=O)[nH]1 [GTP] | effective | effective | – |
| O=c1ccn([C@@H]2O[C@H](COP(=O)(O)OP(=O)(O)OP(=O)(O)OP(=O)(O)OC[C@H]3O[C@@H](n4ccc(=O)[nH]c4=O)[C@H](O)[C@@H]3O)[C@@H](O)[C@H]2O)c(=O)[nH]1 [INS365] | effective | effective | – |
| O=c1[nH]cnc2c1ncn2[C@@H]1O[C@H](COP(=O)(O)OP(=O)(O)OP(=O)(O)O)[C@@H](O)[C@H]1O [ITP] | effective | effective | – |
| CSc1nc(N)c2ncn([C@H]3[C@H](O)[C@H](O)[C@]4(COP(=O)(O)OP(=O)(O)O)C[C@H]34)c2n1 [MRS 2365] | effective | effective | – |
| O=c1ccn([C@@H]2O[C@H](COP(=O)([O-])OP(=O)([O-])O[C@H]3O[C@H](CO)[C@@H](O)[C@H](O)[C@H]3O)[C@@H](O)[C@H]2O)c(=S)[nH]1.[Na+].[Na+] [MRS 2690] | effective | effective | – |
| N[C@@H]1[C@H](O)[C@@H](COP(=O)(O)OP(=O)(O)OP(=O)(O)O)O[C@H]1n1ccc(=O)[nH]c1=S [MRS 2698] | effective | effective | – |
| O=C(Cn1c(=O)ccn(C2OC(COP(=O)(O)OP(=O)(O)O)C(O)C2O)c1=O)c1ccccc1 (stereo not shown) [PSB 0474] | effective | effective | – |
| O=c1ccn([C@@H]2O[C@H](COP(=O)(O)OP(=O)(O)O)[C@@H](O)[C@H]2O)c(=O)[nH]1 [UDP, uridine 5′-diphosphate] | effective | effective | – |
| O=c1ccn([C@@H]2O[C@H](COP(=O)(O)OP(O)(O)=S)[C@@H](O)[C@H]2O)c(=O)[nH]1 [UDPβS, Uridine β-thiodiphosphate] | effective | effective | – |
| O=c1ccn([C@@H]2O[C@H](COP(=O)(O)OP(=O)(O)OP(=O)(O)O)[C@@H](O)[C@H]2O)c(=O)[nH]1 [UTP, uridine 5′-triphosphate] | effective | effective | – |
| O=c1ccn(C2OC(COP(=O)([O-])OP(=O)([O-])OP(=O)([O-])S)C(O)C2O)c(=O)[nH]1.[Na+].[Na+].[Na+] (stereo not shown) [UTPγS trisodium salt] | effective | effective | – |
| O=c1ccn([C@@H]2O[C@H](COP(=O)(O)OP(=O)(O)OP(O)(O)=S)[C@@H](O)[C@H]2O)c(=O)[nH]1 [UTPγS, uridine γ-thiophosphate] | effective | effective | – |
| Nc1ccn([C@H]2C[C@H](O)[C@@H](COP(=O)(O)OP(=O)(O)OP(=O)(O)OP(=O)(O)OC[C@H]3O[C@@H](n4ccc(=O)[nH]c4=O)[C@H](O)[C@@H]3O)O2)c(=O)n1 [denufosol] | effective | effective | – |
| O=c1ccn([C@@H]2O[C@H](CO)[C@@H](O)[C@H]2O)c(=O)[nH]1 [uridine] | – | – | more than 90% |
| Nc1ncnc2c1ncn2[C@@H]1O[C@H](COP(=O)(O)CP(=O)([O-])OP(=O)([O-])[O-])[C@@H](O)[C@H]1O.[Na+].[Na+].[Na+] [α,β-Methyleneadenosine 5′-triphosphate trisodium salt] | effective | effective | – |
| Nc1ncnc2c1ncn2[C@@H]1O[C@H](COP(=O)(O)CP(=O)(O)OP(=O)(O)O)[C@@H](O)[C@H]1O [α,β-methylene ATP] | effective | effective | – |
| BzATP triethylammonium salt | effective | effective | – |
| diadenosine pentaphosphate | effective | effective | – |
| diuridine triphosphate | effective | effective | – |
